This is an account of results in patent US20250034168A1, “NITROGEN-CONTAINING HETEROCYCLIC DERIVATIVE PARP INHIBITOR AND USE THEREOF” (XIZANG HAISCO PHARMACEUTICAL CO., LTD., priority 2021, published 2025).

As a reminder, the AUC(0-t) is the area under the concentration-time curve up to a stated or last time point. Low values mean less exposure, high ones more exposure. By clearance is commonly meant a measure of how efficiently the substance is removed, as volume per time. Lower therefore signals a low capacity for elimination. Usually IC50 stands for the midpoint of a concentration-inhibition curve. Read a high IC50 as a need for much substance.

The nature of series [1]: Pharmacokinetic test in mice. The format is in vivo, ICR mice. How it is done: • 5.2.1 Experimental animals: male ICR mice, 20-25 g, 18 mice/compound. purchased from Chengdu Ddossy Experimental Animals Co., Ltd. • 5.2.2 Experimental design: on the day of the test, 18 ICR mice were randomly grouped according to their body weights. the animals were fasted with water available for 12 to 14 h one day before the administration, and were fed 4 h after the administration.
Before and after the administration, 0.06 mL of blood was taken from the orbit of the animals under isoflurane anesthesia and placed in an EDTAK2 centrifuge tube. The blood was centrifuged at 5000 rpm and 4° C. for 10 min to collect plasma. The blood collection time points for the intravenous group and intragastric administration group were: 0 min, 5 min, 15 min, 30 min, 1 h, 2 h, 4 h, 6 h, 8 h, and 24 h. Before analysis and detection, all samples were stored at −80° C., and a quantitative analysis of samples was performed using LC-MS/MS.

Series [2] concerns MDA-MB-436 cells. The experiment in a line: MDA-MB-436 cell activity test. In kind it is cell-based. To be noted: Homo sapiens. How it is done:
Breast tumor cells MDA-MB-436 were purchased from ATCC, the culture medium was Leibovitz's L-15+10% FBS, and the cells were cultured in a CO2-free incubator at 37° C. On day 1, the cells in the exponential growth phase were collected, and the cell suspension was adjusted to 4000 cells/135 μL with the culture medium. 135 μL of the cell suspension was added to each well of a 96-well cell culture plate and incubated overnight. On day 2, compounds at different concentrations were added, and the plate was placed in the incubator and incubated for 7 days. After the incubation was completed, according to operation instructions for a CellTiter-Glo kit (Promega, G7573), 75 μL of CTG solution, which was already pre-melted and equilibrated to room temperature, was added to each well, and the mixture was uniformly mixed for 2 min using a microplate shaker. The plate was placed at room temperature for 10 min, and then […] were measured using an Envision2104 plate reader (PerkinElmer). The inhibition rate was calculated using formula (1), where RLUcompound was the readout of the drug treated group, RLUcontrol was the average value of the vehicle control group, and RLUblank was the average value of the cell-free well. The IC50 value was calculated using GraphPad Prism software.

The target of series [3] is PARP7 (Homo sapiens (Human), UniProt Q7Z3E1). Put plainly: PARP7 enzyme activity test. The format is biochemical. How it is done: (§1) PARP2 and PARP7 chemical […] detection kits were both purchased from BPS Bioscience. The histone solution in the kit was diluted 5× with 1×PBS, and 25 μL of the diluted histone solution was added to a microwell plate and incubated overnight at 4° C. After the incubation, the plate was washed three times with PBST (0.05% Tween-20). 100 μL of the blocking solution was added to the microwell plate and incubated at 25° C. for 90 minutes. After the incubation, the plate was washed three times with PBST. 2.5 μL of compound 4 diluted in test buffer and 5 μL of substrate mixed solution were added to the microwell plate. 5 μL of the diluted PARP enzyme was added to the microwell plate, and the reaction system was incubated at 25° C. for 60 minutes.
PARP7, sequence (Q7Z3E1 whole entry): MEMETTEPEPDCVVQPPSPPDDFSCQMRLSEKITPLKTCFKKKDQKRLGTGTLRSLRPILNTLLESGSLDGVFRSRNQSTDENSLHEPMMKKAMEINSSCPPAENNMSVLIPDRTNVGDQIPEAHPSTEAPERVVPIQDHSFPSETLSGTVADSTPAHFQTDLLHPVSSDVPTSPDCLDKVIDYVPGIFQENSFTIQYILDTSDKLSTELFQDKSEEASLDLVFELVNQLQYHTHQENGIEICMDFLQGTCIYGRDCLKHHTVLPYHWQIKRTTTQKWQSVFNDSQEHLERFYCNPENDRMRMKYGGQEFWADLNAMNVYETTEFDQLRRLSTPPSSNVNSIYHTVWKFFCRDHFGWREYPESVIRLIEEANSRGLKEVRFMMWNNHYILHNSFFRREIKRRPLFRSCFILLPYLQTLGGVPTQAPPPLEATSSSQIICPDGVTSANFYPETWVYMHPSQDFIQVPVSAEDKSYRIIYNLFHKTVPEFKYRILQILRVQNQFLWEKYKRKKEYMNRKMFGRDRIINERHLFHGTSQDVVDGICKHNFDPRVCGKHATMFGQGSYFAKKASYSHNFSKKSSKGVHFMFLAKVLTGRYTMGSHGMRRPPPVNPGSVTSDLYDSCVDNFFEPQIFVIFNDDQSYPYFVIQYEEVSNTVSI
(§2) After the incubation, the plate was washed three times with PBST. Streptavidin-HRP was diluted 50× with a blocking solution, and 25 μL of the diluent was added to the microwell plate and incubated at 25° C. for 30 minutes. After the incubation, the plate was washed three times with PBST. ELISA ECL substrate A and substrate B were mixed at a ratio of 1:1 (v/v), 25 μL of the mixture was added to the microwell plate, and the chemiluminescence value was read. […]

Series [4] addresses PARP2 (Homo sapiens (Human), UniProt Q9UGN5). The experiment in a line: PARP2 enzyme activity test. The format is biochemical. How it is done:
as §1, §2

[5] abbreviates: male, ICR, iv, mouse plasma, i.v. 2.5 mg/kg.

PARP2, sequence (Q9UGN5 whole entry): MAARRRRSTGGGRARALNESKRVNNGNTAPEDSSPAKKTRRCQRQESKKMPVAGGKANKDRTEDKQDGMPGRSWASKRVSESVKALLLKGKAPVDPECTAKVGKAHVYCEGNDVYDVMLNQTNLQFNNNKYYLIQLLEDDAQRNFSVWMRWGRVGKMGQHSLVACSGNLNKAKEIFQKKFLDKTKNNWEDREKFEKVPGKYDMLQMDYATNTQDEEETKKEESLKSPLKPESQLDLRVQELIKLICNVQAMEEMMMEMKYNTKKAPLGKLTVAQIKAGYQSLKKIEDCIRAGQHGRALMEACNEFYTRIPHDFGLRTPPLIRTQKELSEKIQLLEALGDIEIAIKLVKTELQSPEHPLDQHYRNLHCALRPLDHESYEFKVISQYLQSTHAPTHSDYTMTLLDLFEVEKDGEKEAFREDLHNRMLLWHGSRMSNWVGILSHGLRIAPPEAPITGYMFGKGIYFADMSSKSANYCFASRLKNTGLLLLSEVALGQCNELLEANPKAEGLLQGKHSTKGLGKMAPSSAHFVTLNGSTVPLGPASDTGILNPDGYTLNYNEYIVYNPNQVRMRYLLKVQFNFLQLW

Regarding `CCc1cc2ncc(CN3CC=C(c4ccc(C(=O)NC)nc4)CC3)cc2[nH]c1=O` [Compound 14, 1′-((7-ethyl-6-oxo-5,6-dihydro-1,5-naphthyridin-3-yl)methyl)-N-methyl-1′,2′,3′,6′-tetrahydro-[3,4′-bipyridine]-6-carboxamide], the AUC(0-t) in series [1] (setting [5]) was determined as 220 µg·h/mL; in series [1] (male, ICR, po, mouse plasma, i.g. 10 mg/kg), 829 µg·h/mL. Moreover, the clearance in series [1] (setting [5]) is 0.164 mL/min/kg. In series [1] (male, ICR, iv, mouse plasma, i.v. 2.5 mg/kg, read-out: Vdss), the Vd worked out at 0.112 L/kg. For the same molecule, the F in series [1] (mouse, i.g. 10 mg/kg) was 94.3%. For the same molecule, the IC50 in series [2] (MDA-MB-436, 168 h, 7 days incubation, CellTiter-Glo) was found to be 3.2 nM; in series [3], 40 nM; in series [4] it was 31 nM. Moreover, the inhibition at 10 µM in series [2] (MDA-MB-436 cells, 10 μM, read-out: Max inh. % 10 μM) came out at 89.1%.
